From patent publication EP4342885A1, “N-(3-(AMINOMETHYL)-PHENYL)-5-(4-PHENYL)-5-(TRIFLUOROMETHYL)-4,5-DIHYDROISOXAZOL-3-AMINE DERIVATIVES AND SIMILAR COMPOUNDS AS PESTICIDES” (priority 2022, dated 2024)

Assays:
Format in all cases: in vivo
Myzus persicae = assay: Green peach aphid (Myzus persicae), mixed life stages, systemic test via artificial diet under membrane; settings: 72 h, read-out: mortality in comparison with untreated controls
Source text: For evaluating control of Green Peach Aphid through systemic means the test unit consisted of 96-well-microtiter plates containing liquid artificial diet under an artificial membrane. The compounds were formulated using a solution containing 75% v/v water and 25% v/v DMSO. Different concentrations of formulated compounds were pipetted into the aphid diet, using a custom-built pipette, at two replications. After application, 5 - 8 adult aphids were placed on the artificial membrane inside the microtiter plate wells. The aphids were then allowed to suck on the treated aphid diet and incubated at about 23 ± 1°C and about 50 ± 5 % relative humidity for 3 days. Aphid mortality and fecundity was then visually assessed.

Anthonomus grandis = assay: Boll weevil (Anthonomus grandis) control, 96-well microtiter plate insect diet with eggs; settings: 120 h, read-out: mortality in comparison with untreated controls
Protocol: For evaluating control of boll weevil, the test unit consisted of 96-well-microtiter plates containing an insect diet and 5-10 A. grandis eggs.
The compounds were formulated using a solution containing 75% v/v water and 25% v/v DMSO. Different concentrations of formulated compounds were sprayed onto the insect diet at 5µl, using a custom-built micro atomizer, at two replications.
After application, microtiter plates were incubated at about 25 ± 1°C and about 75 ± 5 % relative humidity for 5 days. Egg and larval mortality were then visually assessed.

Heliothis virescens = assay: Tobacco budworm (Heliothis virescens) control, 96-well microtiter plate insect diet with eggs; settings: 120 h, read-out: mortality in comparison with untreated controls
Protocol: For evaluating control of Tobacco Budworm, the test unit consisted of 96-well-microtiter plates containing an insect diet and 15-25 H. virescens eggs. The compounds were formulated using a solution containing 75% v/v water and 25% v/v DMSO. Different concentrations of formulated compounds were sprayed onto the insect diet at 10µl, using a custom-built micro atomizer, at two replications. After application, microtiter plates were incubated at about 28 ± 1°C and about 80 ± 5 % relative humidity for 5 days. Egg and larval mortality was then visually assessed.

Plutella xylostella = assay: Diamond back moth (Plutella xylostella) control, 96-well microtiter plate insect diet with eggs; settings: 120 h, read-out: mortality in comparison with untreated controls
Protocol: For evaluating control of […] (Plutella xylostella) the test unit consisted of 96-well-microtiter plates containing an insect diet and 15-25 P. xylostella eggs.
The compounds or mixtures were formulated using a solution containing 75% water and 25% DMSO. Different concentrations of formulated compounds or mixtures were sprayed onto the insect diet at 5µl, using a custom-built micro atomizer, at two replications.
After application, microtiter plates were incubated at 28 ± 1°C, 80 ± 5 % RH for 5 days. Egg and larval mortality was then visually assessed.

Aedes aegypti = assay: whole plant or invertebrate; settings: 48 h, larval mortality, 2 days, read-out: mortality in comparison with untreated controls
Protocol: For evaluating control of Yellow Fever Mosquito, the test unit consisted of 96-well-microtiter plates containing 200µl of tap water per well and 5-15 freshly hatched A. aegypti larvae. The active compounds were formulated using a solution containing 75% (v/v) water and 25% (v/v) DMSO. Different concentrations of formulated compounds or mixtures were sprayed onto the insect diet at 2.5µl, using a custom-built micro atomizer, at two replications.
After application, microtiter plates were incubated at 28 ± 1°C, 80 ± 5 % RH for 2 days. Larval mortality was then visually assessed.

Measured: mortality at 800 ppm

N#CC1(C(=O)NCc2cc(NC3=NOC(c4ccc(F)c(Cl)c4)(C(F)(F)F)C3)ccc2Cl)CC1 (stereo not drawn) [I-32]
≥ 75%: all assays above

O=C(NCc1cc(OC2=NOC(c3cc(Cl)c(F)c(Cl)c3)(C(F)(F)F)C2)ccc1F)C1CC1 (stereo not drawn) [I-22]
≥ 75%: all assays above

CCC(=O)NCc1cc(NC2=NOC(c3cc(Cl)cc(Cl)c3)(C(F)(F)F)C2)ccc1F (stereo not drawn) [I-2]
not listed: Aedes aegypti
≥ 75%: all other assays above

CCC(=O)NCc1cc(NC2=NOC(c3ccc(F)c(Cl)c3)(C(F)(F)F)C2)ccc1Cl (stereo not drawn) [I-50]
≥ 75%: all assays above

CCOC(=O)N(C1=NOC(c2cc(Cl)c(F)c(Cl)c2)(C(F)(F)F)C1)c1ccc(F)c(CNC(=O)C2CC2)c1 (stereo not drawn) [I-42]
≥ 75%: all assays above

O=C(NCc1cc(NC2=NOC(c3cc(Cl)c(F)c(Cl)c3)(C(F)(F)F)C2)ccc1OC(F)(F)F)C1CC1 (stereo not drawn) [I-18]
≥ 75%: all assays above

O=C(NCc1cc(NC2=NOC(c3ccc(F)c(Cl)c3)(C(F)(F)F)C2)ccc1Cl)C1CCC1 (stereo not drawn) [I-23]
≥ 75%: all assays above

O=C(NCc1cc(NC2=NOC(c3cc(Cl)c(F)c(Cl)c3)(C(F)(F)F)C2)ccc1F)C1CC1 (stereo not drawn) [I-16]
≥ 75%: all assays above

CCN(C1=NOC(c2cc(Cl)c(F)c(Cl)c2)(C(F)(F)F)C1)c1ccc(F)c(CNC(=O)C2CC2)c1 (stereo not drawn) [I-15]
≥ 75%: all assays above

CC(C)CC(=O)NCc1cc(NC2=NOC(c3ccc(F)c(Cl)c3)(C(F)(F)F)C2)ccc1Cl (stereo not drawn) [I-28]
≥ 75%: all assays above

CS(=O)(=O)CC(=O)NCc1cc(NC2=NOC(c3cc(Cl)cc(Cl)c3)(C(F)(F)F)C2)ccc1F (stereo not drawn) [I-4]
not listed: Plutella xylostella
≥ 75%: all other assays above

O=C(NCc1cc(NC2=NOC(c3ccc(F)c(Cl)c3)(C(F)(F)F)C2)ccc1Cl)C1CSC1 (stereo not drawn) [I-45]
≥ 75%: all assays above

CN(Cc1cc(NC2=NOC(c3cc(Cl)c(F)c(Cl)c3)(C(F)(F)F)C2)ccc1F)C(=O)C1CC1 (stereo not drawn) [I-17]
not listed: Myzus persicae
≥ 75%: all other assays above

CON=CC(=O)NCc1cc(NC2=NOC(c3cc(Cl)cc(Cl)c3)(C(F)(F)F)C2)ccc1F (stereo not drawn) [I-12]
not listed: Aedes aegypti
≥ 75%: all other assays above

O=C(NCc1cc(NC2=NOC(c3cc(Cl)c(F)c(Cl)c3)(C(F)(F)F)C2)ccc1Cl)C1CC1 (stereo not drawn) [I-14]
≥ 75%: all assays above

O=C(N[C@H]1CCc2ccc(NC3=NOC(c4ccc(F)c(Cl)c4)(C(F)(F)F)C3)cc21)C1CC1 (stereo partly drawn) [III-1]
≥ 75%: all assays above

Cc1ccc(NC2=NOC(c3cc(Cl)c(F)c(Cl)c3)(C(F)(F)F)C2)cc1CNC(=O)C1CC1 (stereo not drawn) [I-20]
≥ 75%: all assays above

O=C(NCc1cc(NC2=NOC(c3cc(Cl)cc(Cl)c3)(C(F)(F)Cl)C2)ccc1F)C1CC1 (stereo not drawn) [I-43]
≥ 75%: all assays above

CC(C)C(=O)NCc1cc(NC2=NOC(c3ccc(F)c(Cl)c3)(C(F)(F)F)C2)ccc1Cl (stereo not drawn) [I-25]
≥ 75%: all assays above

O=C(NCc1cc(NC2=NOC(c3ccc(F)c(Cl)c3)(C(F)(F)F)C2)ccc1Cl)C1CC1(F)F (stereo not drawn) [I-48]
≥ 75%: all assays above

O=C(CC1CC1)NCc1cc(NC2=NOC(c3cc(Cl)cc(Cl)c3)(C(F)(F)F)C2)ccc1F (stereo not drawn) [I-6]
not listed: Plutella xylostella
≥ 75%: all other assays above

COCCC(=O)NCc1cc(NC2=NOC(c3cc(Cl)cc(Cl)c3)(C(F)(F)F)C2)ccc1F (stereo not drawn) [I-3]
not listed: Plutella xylostella
≥ 75%: all other assays above

O=C(NCc1cc(NC2=NOC(c3ccc(F)c(Cl)c3)(C(F)(F)F)C2)ccc1Cl)C1CC1 (stereo not drawn) [I-21]
≥ 75%: all assays above

CCS(=O)(=O)NCc1cc(NC2=NOC(c3cc(Cl)cc(Cl)c3)(C(F)(F)F)C2)ccc1F (stereo not drawn) [I-13]
≥ 75%: all assays above
